We go through 58 compounds from patent US20260102359A1, “COMBINATION TREATMENT OF DERMAL AND TRANSDERMAL FIBROTIC DISEASES, DISORDERS AND ASSOCIATED PAIN AND INFLAMMATION” (ERESINA, LLC, priority 2022, published 2026).

Each structure is given as a SMILES string. Structures can show the parent of a compound that is named as a salt.

This data set concerns hDMFa myofibroblast cells.
Turning to `Cc1c(C(=O)Nc2ccc(N3C[C@@H](C)O[C@@H](C)C3)nc2)cccc1-c1ccc(OC(F)(F)F)cc1.O=P(O)(O)O.O=P(O)(O)O` [Cmpd 572, LDE225 Diphosphate], the “Compound Myofibroblast Cytotoxicity Activity” value was “++”.
Next, `COc1ccccc1OCCNCC(O)COc1cccc2[nH]c3ccccc3c12` (stereo not shown) [Cmpd 221, Carvedilol]: “+++”; `C[C@H](CCC(=O)NCCS(=O)(=O)[O-])[C@H]1CC[C@H]2[C@@H]3[C@@H](O)C[C@@H]4C[C@H](O)CC[C@]4(C)[C@H]3CC[C@]12C.[Na+]` [Cmpd 877, Sodium Tauroursodeoxycholate (TUDC)]: “++”.
Under `COc1cc(NS(C)(=O)=O)ccc1Nc1c2ccccc2nc2ccccc12.Cl` [Cmpd 116, Amsacrine hydrochloride] stands “+++”; under `CC(=O)c1c(C)c2cnc(Nc3ccc(N4CCNCC4)cn3)nc2n(C2CCCC2)c1=O.O=S(=O)(O)CCO` [Cmpd 753, Palbociclib (PD0332991) Isethionate], “+++++”.
Next, `Cc1occc(=O)c1O` [Cmpd 52]: “++”; `CN(C)c1ccc(C(=C2C=CC(=[N+](C)C)C=C2)c2ccc(N(C)C)cc2)cc1` [Cmpd 299, Crystal Violet]: “+++”; `CCCCCCCC(=O)O` [Cmpd 729, Octanoic acid]: “++”.
Regarding `CC(C)(C)NCC(O)c1ccc(O)c(CO)c1` (stereo not shown) [Cmpd 847, Salbutamol], the “Compound Myofibroblast Cytotoxicity Activity” value is given as “++”.
Under `CN(C(=O)c1c(O)c2ccccc2n(C)c1=O)c1ccccc1` [Cmpd 841, Roquinimex] stands “++”; under `Cc1c(C)c2c(c(C)c1O)CCC(C)(COc1ccc(CC3SC(=O)NC3=O)cc1)O2` (stereo not shown) [Cmpd 976, Troglitazone], “+++”.
Under `COc1cc(C(=O)O)ccc1O` [Cmpd 995, Vanillic acid] stands “++”; under `CC(=O)O[C@H]1C[C@@]2(C)[C@@H](C[C@@H](O)[C@H]3[C@@]4(C)CC[C@@H](O)[C@@H](C)[C@@H]4CC[C@@]32C)/C1=C(\CCC=C(C)C)C(=O)O` [Cmpd 477, Fusidic Acid (sodium salt)], “+++”; under `O=c1c(-n2ccnn2)c[nH]n1-c1cc(N2CCOCC2)ncn1` [Cmpd 687, Molidustat (BAY85-3934)], “+++”.
Under `O=C(c1ccc(OCCN2CCCCC2)cc1)c1c(-c2ccc(O)cc2)sc2cc(O)ccc12` [Cmpd 819, Raloxifene HCl] stands “++++”.
For `CN1CCN(CCCN2c3ccccc3Sc3ccc(Cl)cc32)CC1` [Cmpd 797, Prochlorperazine], the “Compound Myofibroblast Cytotoxicity Activity” value is on record as “+++++”.
Under `CO[C@H]1/C=C/O[C@@]2(C)Oc3c(C)c(O)c4c(O)c(c(/C=N/N5CCN(C6CCCC6)CC5)c(O)c4c3C2=O)NC(=O)/C(C)=C\C=C\[C@H](C)[C@H](O)[C@@H](C)[C@@H](O)[C@@H](C)[C@H](OC(C)=O)[C@@H]1C` [Cmpd 834, Rifapentine] stands “+++”; under `COC(=O)N[C@H](C(=O)N[C@@H](Cc1ccccc1)[C@@H](O)CN(Cc1ccc(-c2ccccn2)cc1)NC(=O)[C@@H](NC(=O)OC)C(C)(C)C)C(C)(C)C` [Cmpd 138, Atazanavir], “++”.
Next, `CN(C)C(=O)C(CCN1CCC(O)(c2ccc(Cl)cc2)CC1)(c1ccccc1)c1ccccc1` [Cmpd 606, Loperamide HCl]: “+++”.
Consider `CC(C)NCC(O)c1ccc(O)c(O)c1` (stereo not shown) [Cmpd 539, Isoproterenol sulfate dihydrate], for which the “Compound Myofibroblast Cytotoxicity Activity” value is on record as “++”.
Next, `C=CCCCCCCCCC(=O)O` [Cmpd 39, 10-Undecenoic acid]: “++”; `CNC1(C)C2CCC(C2)C1(C)C.Cl` (stereo not shown) [Cmpd 639, Mecamylamine hydrochloride]: “++++”; `Fc1ccc([C@@H]2CCNC[C@H]2COc2ccc3c(c2)OCO3)cc1` [Cmpd 758, Paroxetine HCl]: “+++”.
Regarding `CC(CN(C)C)CN1c2ccccc2CCc2ccccc21.O=C(O)/C=C\C(=O)O` (stereo not shown) [Cmpd 975, Trimipramine (maleate)], the “Compound Myofibroblast Cytotoxicity Activity” value was “++”.
Under `CC(C)(C)NCC(O)c1cc(Cl)c(N)c(Cl)c1` (stereo not shown) [Cmpd 278, Clenbuterol (hydrochloride)] stands “++”; under `COc1cc2ccc(=O)oc2cc1O` [Cmpd 857, Scopoletin], “++”.
Regarding `Cc1cc(O)c2c(c1)C(=O)c1cc(O)cc(O)c1C2=O` [Cmpd 415, Emodin (6-Methyl-1,3,8-trihydroxyanthraquinone)], the “Compound Myofibroblast Cytotoxicity Activity” value is on record as “++”.
Under `Clc1ccc(COC(Cn2ccnc2)c2ccc(Cl)cc2Cl)c(Cl)c1` (stereo not shown) [Cmpd 672, Miconazole Nitrate] stands “+++”; under `O=C1CCc2ccc(OCCCCN3CCN(c4cccc(Cl)c4Cl)CC3)cc2N1` [Cmpd 129, Aripiprazole], “+++”.
Turning to `CN(C)CC/C=C1/c2ccccc2Sc2ccc(Cl)cc21` [Cmpd 254, Chlorprothixene], the “Compound Myofibroblast Cytotoxicity Activity” value is recorded as “+++”.
Next, `O=C(c1ccccc1)c1ccccc1` [Cmpd 168, Benzophenone]: “++”; `CN(CC(=O)O)C(=N)N.O` [Cmpd 295, Creatine monohydrate]: “++”.
Under `OCCN1CCN(CCCN2c3ccccc3Sc3ccc(Cl)cc32)CC1` [Cmpd 773, Perphenazine] stands “+++++”; under `CC(=O)N[C@@H](CS)C(=O)O` [Cmpd 695, N-Acetyl-L-cysteine], “+”.
Regarding `CCCCC/C=C\C/C=C\CCCCCCCC(=O)O` [Cmpd 591, Linoleic Acid], the “Compound Myofibroblast Cytotoxicity Activity” value was “+++”.
Next, `COc1ccc2[n-]c([S+]([O-])Cc3ncc(C)c(OC)c3C)nc2c1.COc1ccc2[n-]c([S+]([O-])Cc3ncc(C)c(OC)c3C)nc2c1.[Mg+2]` (stereo not shown) [Cmpd 427, Esomeprazole Magnesium]: “++”; `C[n+]1cc2c3c(ccc2c2ccc4cc5c(cc4c21)OCO5)OCO3` [Cmpd 850, Sanguinarine]: “+++++”; `CC(=O)[C@@]1(O)CC[C@H]2[C@@H]3C[C@H](C)C4=CC(=O)C=C[C@]4(C)[C@@]3(F)[C@@H](O)C[C@@]21C` [Cmpd 463, Fluorometholone]: “++”.
For `O=Cc1ccc(CO)o1` [Cmpd 66], the “Compound Myofibroblast Cytotoxicity Activity” value is “++”.
Next, `OCc1cc([C@@H](O)CNCCCCCCOCCOCc2c(Cl)cccc2Cl)ccc1O` [Cmpd 1001, Vilanterol trifenatate]: “+++”; `CO[C@H]1C[C@@H]2CC[C@@H](C)[C@@](O)(O2)C(=O)C(=O)N2CCCC[C@H]2C(=O)O[C@H]([C@H](C)C[C@@H]2CC[C@@H](O)[C@H](OC)C2)CC(=O)[C@H](C)/C=C(\C)[C@@H](O)[C@@H](OC)C(=O)[C@H](C)C[C@H](C)/C=C/C=C/C=C/1C` [Cmpd 820, Rapamycin (Sirolimus)]: “++++”; `Nc1cccc2c1CN(C1CCC(=O)NC1=O)C2=O` (stereo not shown) [Cmpd 578, Lenalidomide (CC-5013)]: “++”.
Under `COc1ccc2cc3[n+](cc2c1OC)CCc1cc2c(cc1-3)OCO2.[Cl-]` [Cmpd 172, Berberine hydrochloride] stands “++”; under `CCCCCCCCCCCCCCO` [Cmpd 43, 1-Tetradecanol], “+”.
Next, `C=CC(=O)Nc1cccc(Oc2nc(Nc3ccc(N4CCN(C)CC4)cc3)nc3ccsc23)c1` [Cmpd 735, Olmutinib (HM61713, BI1482694)]: “++++”.
As to `Cc1ccc(C(C)C)cc1O` [Cmpd 220, Carvacrol], the “Compound Myofibroblast Cytotoxicity Activity” value is “++”.
Next, `CC(COc1ccccc1)N(CCCl)Cc1ccccc1.Cl` (stereo not shown) [Cmpd 776, Phenoxybenzamine HCl]: “++”; `Cl.N[C@H](C=O)[C@@H](O)[C@H](O)[C@H](O)CO` [Cmpd 23, (2S,3R,4S,5R)-2-Amino-3,4,5,6-tetrahydroxyhexanal hydrochloride]: “++”; `CCN(CC)CCOc1ccc(C(=C(Cl)c2ccccc2)c2ccccc2)cc1` [Cmpd 284, Clomiphene citrate]: “+++”.
As for `CC1=CCC(O)(C(C)C)CC1` (stereo not shown) [Cmpd 931, Terpinen-4-ol], the “Compound Myofibroblast Cytotoxicity Activity” value is given as “++”.
Take `CCC1=C[C@@H]2CN(C1)Cc1c([nH]c3ccccc13)[C@@](C(=O)OC)(c1cc3c(cc1OC)N(C)[C@H]1[C@@](O)(C(=O)OC)[C@H](OC(C)=O)[C@]4(CC)C=CCN5CC[C@]31[C@@H]54)C2` [Cmpd 1005, Vinorelbine]: the “Compound Myofibroblast Cytotoxicity Activity” value is listed as “++”.
Next, `CC(C)C[C@H](N)C(=O)O` [Cmpd 596, L-Leucine]: “+++”; `CN1CCN(c2ccc(C(=O)Nc3n[nH]c4ccc(Cc5cc(F)cc(F)c5)cc34)c(NC3CCOCC3)c2)CC1` [Cmpd 419, Entrectinib]: “+++”; `C[N+](C)(C)CCO.O=C([O-])C(O)C(O)C(=O)O` (stereo not shown) [Cmpd 257, Choline bitartrate]: “+++”.
Under `CCc1ccc(CCOc2ccc(CC3SC(=O)NC3=O)cc2)nc1` (stereo not shown) [Cmpd 785, Pioglitazone HCl] stands “+++”; under `C[C@H]1c2cccc(O)c2C(=O)C2=C(O)[C@]3(O)C(=O)C(C(N)=O)=C(O)[C@@H](N(C)C)[C@@H]3[C@@H](O)[C@@H]21` [Cmpd 388, Doxycycline HCl], “++”.
Next, `CCCCCCCCCC(=O)O` [Cmpd 331, Decanoic acid]: “+”.
For the compound `CCC1(C)CC(=O)NC1=O` (stereo not shown) [Cmpd 436, Ethosuximide], the “Compound Myofibroblast Cytotoxicity Activity” value is “++”.
